The test system of one series is NCI-H292 cells. Nature of the series: Clonogenic survival assay, NCI-H292 NSCLC cells. Format: cell-based, human. The note with it: for effect of the intracellular agent on ascorbate toxicity (clonogenic survival): 3 h pre-incubation, washed prior to ascorbate ('intracellular'), 200 μM DFO/1 mM DTPA, 1 mM EDTA or 250 μM FAS; for effect of the agent on ascorbate toxicity (clonogenic survival): agent added before and/or during 1 h ascorbate exposure. As to the method: (§1) Treatment conditions for individual experiments are as described in the figure legends and summarized in the Supplemental Experimental Procedures.
(§2) 1-2×10^5 cells were plated in 60 mm cell culture dishes and grown in their respective media for 48 h before exposed to experimental conditions. […] For AdGPx1 experiments, cells were supplemented with 50 nM sodium selenite following transduction and throughout clonogenic growth. […] After treatment, cells were washed with PBS and clonogenic assay was completed in their respective media. Briefly, floating and attached cells were collected and total cells per plate were counted. An experimentally derived number of cells were plated into each well of a 6-well cell culture plate in their respective media. For HEL92.1.7 suspension cells, cells were seeded in a top layer of 0.4% (w/v) agarose to allow for quantifiable colony formation. […] Normalized survival fractions were calculated by comparing plating efficiencies of each treatment group against the control group within a given experiment.

The next series concerns NHAs. Nature of the series: Cellular labile iron pool (Calcein-AM flow cytometry), NHAs. The class given is cell-based, human. The note with it: 100 μM or 250 μM FAS for 3 h. The method, then: The labile iron pool (LIP) was visualized using the fluorescent dye Calcein-AM as previously described (Epsztejn et al., 1997) with modifications. After labeling, samples were divided into two flow cytometry sample tubes, to which 100 μM 2′,2′-bipyridyl (BIP) was added to one tube and analyzed by flow cytometry. BIP tubes were incubated for at least 15 minutes before analysis to allow for full chelation of intracellular labile iron. The LIP (A.U.)=MFIBIP−MFINoBIP was normalized against the control samples to calculate the relative labile iron pool.
The labile iron pool (LIP) was visualized using the fluorescent dye Calcein-AM as previously described with modifications (Epsztejn et al., 1997). Briefly, after sample treatment, cells were trypsinized, spun at 1,200 rpm for 5 min, and resuspended at approximately 1×10^6 cells mL-1 in 500 nM Calcein-AM in PBS. Samples were incubated for 15 min at 4% O2 in a humidity controlled environment (37° C., 5% CO2). Subsequently, samples were pelleted, washed in PBS, and resuspended in 1 mL PBS before dividing each sample into two flow cytometry sample tubes, to which 100 μM 2′,2′-bipyridyl (BIP) was added to one tube. Samples were kept at room temperature and analyzed on a LSR II Flow Cytometer (BD Biosciences; λex=488 nm, λem=515/20 nm). […]

The test system of the next series is NHA. Conditions: FAS 3 h, washed, then ascorbate 1 h. The method, then: After treatment, cells were washed with PBS and clonogenic assay was completed in their respective media as previously described (Fath et al., 2011). Treatment conditions for individual experiments are as described in the figure legends and summarized in the Supplemental Experimental Procedures.
as §2, with “formation. After sufficient time (7-12 days, cell type-dependent), cells were fixed in 70% ethanol and stained with a Brilliant Blue methanol solution.” for “formation.”

A further series concerns H1299 cells. Briefly: Clonogenic survival assay, H1299 NSCLC cells. Format: cell-based, human. The note with it: agent added before and/or during 1 h ascorbate exposure. As to the method: as §1, §2
In series [1] the test system is human non-small cell lung cancer cells. Nature of the series: Clonogenic cell killing of lung cancer cells by ascorbate with chelators (cell line not given). The class given is cell-based.
The next series has as its system cancer cells. Conditions: following exposure.
The test system of another series is U118 cells. Nature of the series: Clonogenic survival assay, U118 GBM cells. Format: cell-based, human. The note with it: agent added before and/or during 1 h ascorbate exposure. The method, then:
as §1, §2

The next series concerns U87 cells. Briefly: Clonogenic survival assay, U87 GBM cells. The class given is cell-based, human. Conditions: agent added before and/or during 1 h ascorbate exposure. The method, then:
as §1, §2

The source of these data is patent publication US10052304B2, “Compositions and methods for cancer therapy” (UNIVERSITY OF IOWA RESEARCH FOUNDATION, priority 2015, dated 2018).

Consider `O=S(=O)([O-])[O-].O=S(=O)([O-])[O-].[Fe+2].[NH4+].[NH4+]` [FAS, ferrous ammonium sulfate], for which the “effect of the intracellular agent on ascorbate toxicity (clonogenic survival)” value in the series with NCI-H292 cells is “sensitized cancer cells to ascorbate”. For the same molecule, in the series with NHAs, the “cellular LIP after FAS” value is on record as “increases the LIP”. For the same molecule, the “effect of the agent on ascorbate toxicity (clonogenic survival)” value (“effect of the agent” below) with NHA was “sensitizes NHAs to ascorbate toxicity”.

In the case of `O=CC[C@@H](O)[C@H](O)[C@H](O)CO` [2-DG, 2-deoxy-D-glucose], the “effect of the agent” value with H1299 cells and in the series on NCI-H292 cells was “did not suppress ascorbate toxicity” throughout.

Turning to `O=C(O)CN(CCN(CC(=O)O)CC(=O)O)CC(=O)O` [EDTA, ethylenediaminetetraacetic acid], the “effect of the intracellular agent on ascorbate toxicity (clonogenic survival)” value in the series on NCI-H292 cells is “enhanced ascorbate toxicity”. Also, the “effect of EDTA on cytotoxicity of pharmacological ascorbate” value in series [1] (EDTA 1 mM and greater, cell culture) is “significantly enhance the cytotoxicity of pharmacological ascorbate”. Moreover, the “enhanced ascorbate toxicity after EDTA pretreatment and wash-out” value in series [1] (EDTA pretreatment followed by washing out) is “sufficient to get enhanced toxicity”. Also, the clonogenic cell survival result in series [1] (high dose EDTA + pharmacological ascorbate + standard-of-care chemotherapy vs standard of care alone, two NSCLC cell lines) is “decreases clonogenic cell survival”. The “effect of iron chelators on ascorbate toxicity / response to therapy (FIG. 8)” value in series [1] (lung cancer cells treated with ascorbate and iron chelators) was “enhance responses to cancer therapy”. In addition, the “cellular retention of 14C labeled EDTA” value in the series on cancer cells was “retained with cancer cells following exposure”.

B1: PEG-catalase: polyethylene glycol conjugated catalase which converts H2O2 into H2O and O2 (conjugate, UniProt P00432 2-527, looked up)
Catalase: ADNRDPASDQMKHWKEQRAAQKPDVLTTGGGNPVGDKLNSLTVGPRGPLLVQDVVFTDEMAHFDRERIPERVVHAKGAGAFGYFEVTHDITRYSKAKVFEHIGKRTPIAVRFSTVAGESGSADTVRDPRGFAVKFYTEDGNWDLVGNNTPIFFIRDALLFPSFIHSQKRNPQTHLKDPDMVWDFWSLRPESLHQVSFLFSDRGIPDGHRHMNGYGSHTFKLVNANGEAVYCKFHYKTDQGIKNLSVEDAARLAHEDPDYGLRDLFNAIATGNYPSWTLYIQVMTFSEAEIFPFNPFDLTKVWPHGDYPLIPVGKLVLNRNPVNYFAEVEQLAFDPSNMPPGIEPSPDKMLQGRLFAYPDTHRHRLGPNYLQIPVNCPYRARVANYQRDGPMCMMDNQGGAPNYYPNSFSAPEHQPSALEHRTHFSGDVQRFNSANDDNVTQVRTFYLKVLNEEQRKRLCENIAGHLKDAQLFIQKKAVKNFSDVHPEYGSRIQALLDKYNEEKPKNAVHTYVQHGSHLSAREKANL
modifications: PEG conjugate
notes: polyethylene glycol conjugated catalase which converts H2O2 into H2O and O2
B1: the “effect of the agent” value in the series on NCI-H292 cells is listed as “inhibited cancer cell killing by ascorbate”.

B2: catalase: exogenous bovine catalase, 50 U mL^−1, added with ascorbate (protein, UniProt P00432 2-527, looked up)
Catalase: ADNRDPASDQMKHWKEQRAAQKPDVLTTGGGNPVGDKLNSLTVGPRGPLLVQDVVFTDEMAHFDRERIPERVVHAKGAGAFGYFEVTHDITRYSKAKVFEHIGKRTPIAVRFSTVAGESGSADTVRDPRGFAVKFYTEDGNWDLVGNNTPIFFIRDALLFPSFIHSQKRNPQTHLKDPDMVWDFWSLRPESLHQVSFLFSDRGIPDGHRHMNGYGSHTFKLVNANGEAVYCKFHYKTDQGIKNLSVEDAARLAHEDPDYGLRDLFNAIATGNYPSWTLYIQVMTFSEAEIFPFNPFDLTKVWPHGDYPLIPVGKLVLNRNPVNYFAEVEQLAFDPSNMPPGIEPSPDKMLQGRLFAYPDTHRHRLGPNYLQIPVNCPYRARVANYQRDGPMCMMDNQGGAPNYYPNSFSAPEHQPSALEHRTHFSGDVQRFNSANDDNVTQVRTFYLKVLNEEQRKRLCENIAGHLKDAQLFIQKKAVKNFSDVHPEYGSRIQALLDKYNEEKPKNAVHTYVQHGSHLSAREKANL
On to B2, for which the “effect of the agent” value in the series with H1299 cells, in the series on NCI-H292 cells, in the series on U118 cells and in the series on U87 cells was “inhibited” in each case.
